Results from PubChem BioAssay (NCI).
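Growth conditions: 96-well plates. Treatment: test compound, 48 hours, 5 concentrations. Analysis: linear interpolation between bracketing concentrations; unreached endpoints set to highest concentration. GI50 is the concentration that inhibits growth by half. TGI: total growth inhibition.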

Experiments:
Assay in all cases: NCI anticancer screen, dose series, 48 h
MDA-MB-231 breast = system: MDA-MB-231 breast
UACC-257 melanoma = system: UACC-257 melanoma
BT-549 breast = system: BT-549 breast
K-562 leukemia = system: K-562 leukemia
NCI/ADR-RES ovarian = system: NCI/ADR-RES ovarian
SW-620 colon = system: SW-620 colon
SF-295 CNS = system: SF-295 CNS
SK-MEL-2 melanoma = system: SK-MEL-2 melanoma
NCI-H226 lung = system: NCI-H226 lung
MALME-3M melanoma = system: MALME-3M melanoma
NCI-H23 lung = system: NCI-H23 lung
HCT-15 colon = system: HCT-15 colon
SNB-19 CNS = system: SNB-19 CNS
TK-10 renal = system: TK-10 renal
SK-MEL-5 melanoma = system: SK-MEL-5 melanoma
HS 578T breast = system: HS 578T breast
786-0 renal = system: 786-0 renal
OVCAR-3 ovarian = system: OVCAR-3 ovarian
SF-539 CNS = system: SF-539 CNS
NCI-H522 lung = system: NCI-H522 lung
T-47D breast = system: T-47D breast
DU-145 prostate = system: DU-145 prostate
EKVX NSCLC = system: EKVX NSCLC
RPMI-8226 leukemia = system: RPMI-8226 leukemia
SNB-75 CNS = system: SNB-75 CNS
NCI-H460 lung = system: NCI-H460 lung
SN12C renal = system: SN12C renal
SR leukemia = system: SR leukemia
CCRF-CEM leukemia = system: CCRF-CEM leukemia
OVCAR-4 ovarian = system: OVCAR-4 ovarian
KM12 colon = system: KM12 colon
HOP-92 NSCLC = system: HOP-92 NSCLC
HCC-2998 colon = system: HCC-2998 colon
SK-OV-3 ovarian = system: SK-OV-3 ovarian
CAKI-1 renal = system: CAKI-1 renal
UO-31 renal = system: UO-31 renal
RXF 393 renal = system: RXF 393 renal
PC-3 prostate = system: PC-3 prostate
SK-MEL-28 melanoma = system: SK-MEL-28 melanoma
SF-268 CNS = system: SF-268 CNS
ACHN renal = system: ACHN renal
OVCAR-5 ovarian = system: OVCAR-5 ovarian
IGROV1 ovarian = system: IGROV1 ovarian
HT29 colon = system: HT29 colon
LOX IMVI melanoma = system: LOX IMVI melanoma
U251 CNS = system: U251 CNS
OVCAR-8 ovarian = system: OVCAR-8 ovarian
A549 NSCLC = system: A549 NSCLC
HCT-116 colon = system: HCT-116 colon
MCF7 breast = system: MCF7 breast
M14 melanoma = system: M14 melanoma
HOP-62 NSCLC = system: HOP-62 NSCLC
HL-60(TB) leukemia = system: HL-60(TB) leukemia
MDA-MB-435 = system: MDA-MB-435
MOLT-4 leukemia = system: MOLT-4 leukemia
COLO 205 colon = system: COLO 205 colon
UACC-62 melanoma = system: UACC-62 melanoma

Structure (SMILES): Clc1ccc(OCc2nnc3n2N=C(c2ccc(Cl)cc2Cl)CS3)cc1
- GI50 (MDA-MB-231 breast): 14.4 µM
- TGI (MDA-MB-231 breast): 33.2 µM
- GI50 (UACC-257 melanoma): 25 µM
- TGI (UACC-257 melanoma): 50 µM
- GI50 (BT-549 breast): 22.8 µM
- TGI (BT-549 breast): 46.2 µM
- GI50 (K-562 leukemia): 32.5 µM
- TGI (K-562 leukemia): > 100 µM
- GI50 (NCI/ADR-RES ovarian): 16.2 µM
- TGI (NCI/ADR-RES ovarian): 37.9 µM
- GI50 (SW-620 colon): 31.6 µM
- TGI (SW-620 colon): > 100 µM
- GI50 (SF-295 CNS): 13.7 µM
- TGI (SF-295 CNS): 44.2 µM
- GI50 (SK-MEL-2 melanoma): 22.1 µM
- TGI (SK-MEL-2 melanoma): 45.8 µM
- GI50 (NCI-H226 lung): 17.3 µM
- TGI (NCI-H226 lung): 38.9 µM
- GI50 (MALME-3M melanoma): 19.8 µM
- TGI (MALME-3M melanoma): 58.6 µM
- GI50 (NCI-H23 lung): 17.1 µM
- TGI (NCI-H23 lung): 37.9 µM
- GI50 (HCT-15 colon): 13.9 µM
- TGI (HCT-15 colon): 37.1 µM
- GI50 (SNB-19 CNS): 28.5 µM
- TGI (SNB-19 CNS): > 100 µM
- GI50 (TK-10 renal): 15.9 µM
- TGI (TK-10 renal): > 100 µM
- GI50 (SK-MEL-5 melanoma): 16.4 µM
- TGI (SK-MEL-5 melanoma): 31.9 µM
- GI50 (HS 578T breast): 29.1 µM
- TGI (HS 578T breast): 71 µM
- GI50 (786-0 renal): 32.7 µM
- TGI (786-0 renal): > 100 µM
- GI50 (OVCAR-3 ovarian): 17.8 µM
- TGI (OVCAR-3 ovarian): 50.7 µM
- GI50 (SF-539 CNS): 17.4 µM
- TGI (SF-539 CNS): 34.6 µM
- GI50 (NCI-H522 lung): 19.2 µM
- TGI (NCI-H522 lung): 38.7 µM
- GI50 (T-47D breast): 38.5 µM
- TGI (T-47D breast): > 100 µM
- GI50 (DU-145 prostate): 31.2 µM
- TGI (DU-145 prostate): > 100 µM
- GI50 (EKVX NSCLC): 20.5 µM
- TGI (EKVX NSCLC): 52.9 µM
- GI50 (RPMI-8226 leukemia): 21.1 µM
- TGI (RPMI-8226 leukemia): 68.5 µM
- GI50 (SNB-75 CNS): 16.3 µM
- TGI (SNB-75 CNS): 43.2 µM
- GI50 (NCI-H460 lung): 17.2 µM
- TGI (NCI-H460 lung): 51 µM
- GI50 (SN12C renal): 14.8 µM
- TGI (SN12C renal): 30.6 µM
- GI50 (SR leukemia): 19.4 µM
- TGI (SR leukemia): 52.9 µM
- GI50 (CCRF-CEM leukemia): 21.1 µM
- TGI (CCRF-CEM leukemia): 68.1 µM
- GI50 (OVCAR-4 ovarian): 23.7 µM
- TGI (OVCAR-4 ovarian): 79 µM
- GI50 (KM12 colon): 20.9 µM
- TGI (KM12 colon): 54.4 µM
- GI50 (HOP-92 NSCLC): 14.3 µM
- TGI (HOP-92 NSCLC): 41.2 µM
- GI50 (HCC-2998 colon): 16.6 µM
- TGI (HCC-2998 colon): 35 µM
- GI50 (SK-OV-3 ovarian): 42.8 µM
- TGI (SK-OV-3 ovarian): > 100 µM
- GI50 (CAKI-1 renal): 25.9 µM
- TGI (CAKI-1 renal): 79.7 µM
- GI50 (UO-31 renal): 14.8 µM
- TGI (UO-31 renal): 34.5 µM
- GI50 (RXF 393 renal): 13.7 µM
- TGI (RXF 393 renal): 31.8 µM
- GI50 (PC-3 prostate): 27.6 µM
- TGI (PC-3 prostate): > 100 µM
- GI50 (SK-MEL-28 melanoma): 20.6 µM
- TGI (SK-MEL-28 melanoma): 44.6 µM
- GI50 (SF-268 CNS): 17.4 µM
- TGI (SF-268 CNS): 40.2 µM
- GI50 (ACHN renal): 20.4 µM
- TGI (ACHN renal): 49.3 µM
- GI50 (OVCAR-5 ovarian): 22.1 µM
- TGI (OVCAR-5 ovarian): 81 µM
- GI50 (IGROV1 ovarian): 19.8 µM
- TGI (IGROV1 ovarian): 50.8 µM
- GI50 (HT29 colon): 16 µM
- TGI (HT29 colon): 51.8 µM
- GI50 (LOX IMVI melanoma): 16.2 µM
- TGI (LOX IMVI melanoma): 30.9 µM
- GI50 (U251 CNS): 19.5 µM
- TGI (U251 CNS): 41.8 µM
- GI50 (OVCAR-8 ovarian): 25.4 µM
- TGI (OVCAR-8 ovarian): 52.7 µM
- GI50 (A549 NSCLC): 32.6 µM
- TGI (A549 NSCLC): > 100 µM
- GI50 (HCT-116 colon): 13.2 µM
- TGI (HCT-116 colon): 30.4 µM
- GI50 (MCF7 breast): 27.8 µM
- TGI (MCF7 breast): 69.2 µM
- GI50 (M14 melanoma): 16.4 µM
- TGI (M14 melanoma): 36.3 µM
- GI50 (HOP-62 NSCLC): 19.6 µM
- TGI (HOP-62 NSCLC): 41.3 µM
- GI50 (HL-60(TB) leukemia): 31.8 µM
- TGI (HL-60(TB) leukemia): > 100 µM
- GI50 (MDA-MB-435): 22.4 µM
- TGI (MDA-MB-435): 59.8 µM
- GI50 (MOLT-4 leukemia): 32.4 µM
- TGI (MOLT-4 leukemia): > 100 µM
- GI50 (COLO 205 colon): 26.3 µM
- TGI (COLO 205 colon): 86.7 µM
- GI50 (UACC-62 melanoma): 14 µM
- TGI (UACC-62 melanoma): 31.4 µM
